The test addresses T1, Cys12 of the KRAS 4B G12C protein (Homo sapiens, UniProt P01116, G12C).
T1 construct: This protein contained 188 amino acids in total, including an N-terminal 6-Histidine tag; made in house; host or cells: E. coli BL21
Put plainly: In vitro covalent adduct formation (CAF) assay, LC-MS intact mass. Format: binding. To be noted: 10 uM compound, 60 min. In a few lines:
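GDP-loaded (>95%) His-TEV-tagged KRAS 4B G12C (residues 1–169), 5 μM in TBS pH 7.4, incubated with 10 μM compound (4% DMSO) at 22° C for one hour. Intact-protein LC-MS gave free:adduct ratios, reported as percent protein modified; duplicate runs.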

Regarding `[2H]C([2H])=C([2H])C(=O)N1[C@H](C)CN(c2nc(=O)n3c4c(c(-c5ccc(F)cc5)c(C(F)(F)F)cc24)SC[C@@H]3COC)C[C@@H]1C` [Example 1366], the “% CAF 10 uM @ 60 min” value was determined as 96.8%.
Turning to `C=CC(=O)N1[C@H](C)CN(c2nc(=O)n3c4c(c(-c5c(F)cccc5F)c(C(F)(F)F)cc24)SC[C@@H]3COC)C[C@@H]1C` [Example 1371, (S)-7-((3S,5R)-4-acryloyl-3,5-dimethylpiperazin-1-yl)-10-(2,6-difluorophenyl)-3-(methoxymethyl)-9-(trifluoromethyl)-2,3-dihydro-5H-[1,4]thiazino[2,3,4-ij]quinazolin-5-one], the “% CAF 10 uM @ 60 min” value turned out to be 60.6%.
Consider `C=CC(=O)N1[C@H](C)CN(c2nc(=O)n3c4c(c(-c5ccc(F)c(Cl)c5)c(C(F)(F)F)cc24)SC[C@@H]3CN2CCN(C3CC3)CC2)C[C@@H]1C` [Example 1372, (S)-7-((3S,5R)-4-acryloyl-3,5-dimethylpiperazin-1-yl)-10-(3-chloro-4-fluorophenyl)-3-((4-cyclopropylpiperazin-1-yl)methyl)-9-(trifluoromethyl)-2,3-dihydro-5H-[1,4]thiazino[2,3,4-ij]quinazolin-5-one], for which the “% CAF 10 uM @ 60 min” value worked out at 77.2%.
Under `C=CC(=O)N1[C@H](C)CN(c2nc(=O)n3c4c(c(-c5ccc(F)c(Cl)c5)c(C(F)(F)F)cc24)SC[C@@H]3CN2CCN(CC)CC2)C[C@@H]1C` [Example 1373, (S)-7-((3S,5R)-4-acryloyl-3,5-dimethylpiperazin-1-yl)-10-(3-chloro-4-fluorophenyl)-3-((4ethylpiperazin-1-yl)methyl)-9-(trifluoromethyl)-2,3-dihydro-5H-[1,4]thiazino[2,3,4-ij]quinazolin-5-one] stands 66.2%; under `C=CC(=O)N1[C@H](C)CN(c2nc(=O)n3c4c(c(-c5c(F)cc(F)cc5F)c(C(F)(F)F)cc24)SC[C@@H]3COC)C[C@@H]1C` [Example 1374, (S)-7-((3S,5R)-4-acryloyl-3,5-dimethylpiperazin-1-yl)-3-(methoxymethyl)-9-(trifluoromethyl)-10-(2,4,6-trifluorophenyl)-2,3-dihydro-5H-[1,4]thiazino[2,3,4-ij]quinazolin-5-one], 88.5%; under `C=CC(=O)N1CCN(c2nc(=O)n3c4c(c(-c5c(F)cccc5F)c(C(F)(F)F)cc24)SC[C@@H]3COC)CC1` [Example 1377, (S)-7-(4-acryloylpiperazin-1-yl)-10-(2,6-difluorophenyl)-3-(methoxymethyl)-9-(trifluoromethyl)-2,3-dihydro-5H-[1,4]thiazino[2,3,4-ij]quinazolin-5-one], 95.5%.
As to `C=CC(=O)N1CCN(c2nc(=O)n3c4c(c(-c5ccc(F)cc5)c(C(F)(F)F)cc24)SC[C@@H]3CN2CCN(CC)CC2)CC1` [Example 1378, (S)-7-(4-acryloylpiperazin-1-yl)-3-((4-ethylpiperazin-1-yl)methyl)-10-(4-fluorophenyl)-9-(trifluoromethyl)-2,3-dihydro-5H-[1,4]thiazino[2,3,4-ij]quinazolin-5-one], the “% CAF 10 uM @ 60 min” value came out at 78.9%.
The figure for `C=CC(=O)N1CCN(c2nc(=O)n3c4c(c(-c5c(F)cc(F)cc5F)c(C(F)(F)F)cc24)SC[C@@H]3COC)CC1` [Example 1379, (S)-7-(4-acryloylpiperazin-1-yl)-3-(methoxymethyl)-9-(trifluoromethyl)-10-(2,4,6-trifluorophenyl)-2,3-dihydro-5H-[1,4]thiazino[2,3,4-ij]quinazolin-5-one] is 96.7%; for `C=CC(=O)N1C[C@H](C)N(c2nc(=O)n3c4c(c(-c5ccc(F)c(Cl)c5)c(C(F)(F)F)cc24)SC[C@@H]3CN2CCN(CC)CC2)C[C@H]1C` [Example 1380, (S)-7-((2S,5R)-4-acryloyl-2,5-dimethylpiperazin-1-yl)-10-(3-chloro-4-fluorophenyl)-3-((4-ethylpiperazin-1-yl)methyl)-9-(trifluoromethyl)-2,3-dihydro-5H-[1,4]thiazino[2,3,4-ij]quinazolin-5-one] it is 88.4%.
The figure for `C=CC(=O)N1CC2COCC(C1)N2c1nc(=O)n2c3c(c(-c4ccc(F)cc4)c(C(F)(F)F)cc13)SC[C@@H]2COC` [Example 1383, (3S)-7-(7-acryloyl-3-oxa-7,9-diazabicyclo[3.3.1]nonan-9-yl)-10-(4-fluorophenyl)-3-(methoxymethyl)-9-(trifluoromethyl)-2,3-dihydro-5H-[1,4]thiazino[2,3,4-ij]quinazolin-5-one] is 66%; for `C=CC(=O)N1C2COCC1CN(c1nc(=O)n3c4c(c(-c5ccc(F)cc5)c(C(F)(F)F)cc14)SC[C@@H]3COC)C2` [Example 1384, (3S)-7-(9-acryloyl-3-oxa-7,9-diazabicyclo[3.3.1]nonan-7-yl)-10-(4-fluorophenyl)-3-(methoxymethyl)-9-(trifluoromethyl)-2,3-dihydro-5H-[1,4]thiazino[2,3,4-ij]quinazolin-5-one] it is 77.8%; for `C=CC(=O)N1[C@H](C)CN(c2nc(=O)n3c4c(c(-c5cccc6cnn(C)c56)c(C(F)(F)F)cc24)SC[C@@H]3CN2C[C@@H]3C[C@H]2CO3)C[C@@H]1C` [Example 1385, (3S)-3-(((1S,4S)-2-oxa-5-azabicyclo[2.2.1]heptan-5-yl)methyl)-7-((3S,5R)-4-acryloyl-3,5-dimethylpiperazin-1-yl)-10-(1-methyl-1H-indazol-7-yl)-9-(trifluoromethyl)-2,3-dihydro-5H-[1,4]thiazino[2,3,4-ij]quinazolin-5-one] it is 92.5%.
The figure for `C=CC(=O)N1[C@H](C)CN(c2nc(=O)n3c4c(c(-c5ccc(F)c(Cl)c5)c(C(F)(F)F)cc24)SC[C@@H](N2CCOCC2)C3)C[C@@H]1C` [Example 1386, (S)-8-((3S,5R)-4-acryloyl-3,5-dimethylpiperazin-1-yl)-11-(3-chloro-4-fluorophenyl)-3-morpholino-10-(trifluoromethyl)-3,4-dihydro-2H,6H-[1,4]thiazepino[2,3-4-ij]quinazolin-6-one] is 71.6%.
Take `C=CC(=O)N1C[C@H](C)N(c2nc(=O)n3c4c(c(-c5ccc(F)c(Cl)c5)c(C(F)(F)F)cc24)SC[C@@H]3CN2CCN(C3CC3)CC2)C[C@H]1C` [Example 1387, (S)-7-((2S,5R)-4-acryloyl-2,5-dimethylpiperazin-1-yl)-10-(3-chloro-4-fluorophenyl)-3-((4-cyclopropylpiperazin-1-yl)methyl)-9-(trifluoromethyl)-2,3-dihydro-5H-[1,4]thiazino[2,3,4-ij]quinazolin-5-one]: the “% CAF 10 uM @ 60 min” value worked out at 71%.
Under `C=CC(=O)N1C2CCC1CN(c1nc(=O)n3c4c(c(-c5cc(Cl)c(F)cc5F)c(C(F)(F)F)cc14)SC[C@@H]3COC)C2` [Example 1394, (3S,10R)-7-((1R,5S)-8-acryloyl-3,8-diazabicyclo[3.2.1]octan-3-yl)-10-(5-chloro-2,4-difluorophenyl)-3-(methoxymethyl)-9-(trifluoromethyl)-2,3-dihydro-5H-[1,4]thiazino[2,3,4-ij]quinazolin-5-one] stands 93.5%.
The figure for `C=CC(=O)N1C2CCC1CN(c1nc(=O)n3c4c(c(-c5cc(Cl)c(F)cc5F)c(C(F)(F)F)cc14)SC[C@@H]3COC)C2` [Example 1395, (3S,10S)-7-((1R,5S)-8-acryloyl-3,8-diazabicyclo[3.2.1]octan-3-yl)-10-(5-chloro-2,4-difluorophenyl)-3-(methoxymethyl)-9-(trifluoromethyl)-2,3-dihydro-5H-[1,4]thiazino[2,3,4-ij]quinazolin-5-one] is 17.3%.
Under `C=CC(=O)N1[C@H](C)CN(c2nc(=O)n3c4c(c(-c5ccc(F)cc5)c(C(F)(F)F)cc24)SC[C@@H](CO)C3)C[C@@H]1C` [Example 1398, (R)-8-((3S,5R)-4-acryloyl-3,5-dimethylpiperazin-1-yl)-11-(4-fluorophenyl)-3-(hydroxymethyl)-10-(trifluoromethyl)-3,4-dihydro-2H,6H-[1,4]thiazepino[2,3,4-ij]quinazolin-6-one] stands 44.2%; under `C=CC(=O)N1[C@H](C)CN(c2nc(=O)n3c4c(c(-c5ccc(F)cc5)c(C(F)(F)F)cc24)SC[C@H](CO)C3)C[C@@H]1C` [Example 1399, (S)-8-((3S,5R)-4-acryloyl-3,5-dimethylpiperazin-1-yl)-11-(4-fluorophenyl)-3-(hydroxymethyl)-10-(trifluoromethyl)-3,4-dihydro-2H,6H-[1,4]thiazepino[2,3,4-ij]quinazolin-6-one], 95.5%; under `C=CC(=O)N1[C@@H]2CC[C@H]1CN(c1nc(=O)n3c4c(c(-c5cc(Cl)c(F)cc5F)c(Cl)cc14)SC[C@@H]3CN1CCN(CC)CC1)C2` [Example 1400, (3S)-7-((1R,5S)-8-acryloyl-3,8-diazabicyclo[3.2.1]octan-3-yl)-9-chloro-10-(5-chloro-2,4-difluorophenyl)-3-((4-ethylpiperazin-1-yl)methyl)-2,3-dihydro-5H-[1,4]thiazino[2,3,4-ij]quinazolin-5-one], 43.7%.
As to `C=CC(=O)N1C2CCC1CN(c1nc(=O)n3c4c(c(-c5cc(Cl)c(F)cc5F)c(C(F)(F)F)cc14)SCC1(COC1)C3)C2` [Example 1401, (R)-8′-((1R,5S)-8-acryloyl-3,8-diazabicyclo[3.2.1]octan-3-yl)-11′-(5-chloro-2,4-difluorophenyl)-10′-(trifluoromethyl)-2′H,4′H,6′H-spiro[oxetane-3,3′-[1,4]thiazepino[2,3,4-ij]quinazolin]-6′-one], the “% CAF 10 uM @ 60 min” value is on record as 76.6%.
The figure for `C=CC(=O)N1C2CCC1CN(c1nc(=O)n3c4c(c(-c5cc(Cl)c(F)cc5F)c(C(F)(F)F)cc14)SCC1(COC1)C3)C2` [Example 1402, (S)-8′-((1R,5S)-8-acryloyl-3,8-diazabicyclo[3.2.1]octan-3-yl)-11′-(5-chloro-2,4-difluorophenyl)-10′-(trifluoromethyl)-2′H,4′H,6′H-spiro[oxetane-3,3′-[1,4]thiazepino[2,3,4-ij]quinazolin-6′-one] is 6.8%.

For the origin of these results see US20230107642A1 (Erasca, Inc., priority 2020, published 2023).
